Each structure is given as a SMILES string. Where a name gives a salt, the structure may show the parent alone. Read-outs that look alike come from different tables or passages of the source.

The values below come from patent US6562627B1, “High throughput method for measurement of physicochemical values” (BDC Pharma LLC, priority 1998, dated 2003).

On series [1], the source says:
(§1) k′app=k′HA([H^+]+^surfaceKa)/([H^+]+^bulkKa) Eq. 7
(§2) where k′app is the capacity factor of the test compound measured at different mobile phase pH conditions, and k′HA is the capacity factor of the non-ionized species. Nonlinear fitting of the three experimentally measured parameters [H+], k′app, and k′HA to eq. 7 can be used to obtain numerical estimates for both ^surface Ka and ^bulkKa of the compound.
(§3) k′app=k′A^−([H^+]/^surfaceKa+1)/([H^+]/^bulkKa+1) Eq. 8
(§4) The reason for developing eq. 7 is that eq. […] Both parameters (k′HA and k′A^−) can be treated as unknowns in the equations (like ^bulkKa and ^surfaceKa), and the experimental data can be used to calculate (by non-linear curve fitting) three parameters (k′HA (or k′A^−) and ^bulkKa and ^surfaceKa) instead of two (^bulkKa and ^surfaceKa). This reduces the number of experimental data to be collected, and still allows the determination of the desired parameters (^bulkKa and ^surfaceKa).
(§5) The conventional thinking regarding equations 7 and 8 is that k′HA and k′A^− (the capacity factors of the […] species) are constants that have to be determined experimentally in order to calculate ^bulkpKa and ^surfacepKa. […] This is problematic because it may require use of pH's greater than 8-9, which in the case of some test surfaces causes deterioration. […] If sufficient data are collected (no matter what the pH range is), non-linear curve fitting techniques can be used to fit three parameters (^bulkpKa, ^surfacepKa and k′HA (or k′A^−, depending on whether you use Eq. 7 or Eq. 8)) instead of two (^bulkpKa and ^surfacepKa).
(§6) The test compounds were injected as two distinct mixtures (acidic and basic compounds) to avoid acid/base interactions during the chromatographic runs. […] The retention time (tr) was determined for each compound and the corresponding capacity factor k′app was calculated. Between each run, column degradation was evaluated by running the standard compounds at pH=7.4.
(§7) The retention time of each compound was determined using the Esquire Data Analysis software. The capacity factors k′app were calculated using the equation: k′app=(tr−t0)/t0 where the tr is the retention time, and t0 is the dead time. The final ^surfaceKa and ^bulkKa were calculated by nonlinear least square curve fitting of the following equations:
(§8) k′app=k′HA([H^+]+^surfaceKa)/([H^+]+^bulkKa) (Eq. 7 as shown above).
(§9) k′app=k′A^−([H^+]/^surfaceKa+1)/([H^+]/+^bulkKa+1) (Eq. 8 as shown above).
(§10) [H^+] was calculated from the mobile phase pH values used for the experiment. The fitting parameters were k′A^−, ^surfaceKa, and ^bulkKa for the acidic compounds and kHA, ^surfaceKa, and ^bulkKa for the basic compounds.
(§11) The nonlinear fitting function is from the commercial software S-PLUS (MathSoft). Briefly, the function tries to estimate the parameters to minimize the sum of the squared differences between the response and the prediction. We collected data at 15 different pH values. […] Like all silica based chromatography material, Immobilized Artificial Membranes (IAM's) are unstable in the presence of chemically basic mobile phase, and column lifetimes decrease under these conditions. Thus it is not possible to continuously perfuse IAM columns with basic mobile phases for extended periods of time. […] In summary, 12 points were used to curve fit the data.
(§12) For each compound, the retention time (tr) was determined and the corresponding capacity factor (k′app) was calculated under various mobile phase pH conditions.

For series [2] the following is noted: literature, cited from earlier work; for bulkpka2 (Ref.): second ionizable group.
From the text in series [3]: as §1, §2, §3, §4, §5
The data was collected on 4.6×30 mm^esterIAM.PC^C10/C3 columns. Four ^esterIAM.PC^C10/C3 columns were used to collect all the experimental data.
as §6, §7, §8, §9, §10, §11, §12
The source holds these as a separate data set.

For series [4] the following is noted: cited from earlier work.
For series [5] the following is noted: cited from earlier work. This is another data set of the same source.
Series [6] is described as follows: Capacity factor (k′app) by LC/MS on an immobilized artificial membrane column at varied mobile phase pH. The format is physicochemical.
[7] abbreviates: 0.01 M PBS mobile phase, 12 pH points 4.05 to 8.06, monovalent equations.
The mark [8] stands for this setting: esterIAM.PC C10/C3 column, 0.01 M PBS mobile phase, 12 pH points 4.05 to 8.06, monovalent equations.

Turning to `CC[C@H]1[C@@H]2C[C@H]3[C@@H]4N(C)c5ccccc5[C@]45C[C@@H]([C@H]2[C@H]5O)N3[C@@H]1O` [ajmaline], in series [1] (setting [7]), the “bulkpKa (Exp.)” value amounted to 7.43. Further, in series [2] (20° C., DMFA/H2O-80%), the “bulkpKa1 (Ref.)” value is on record as 8.1. In series [3] (setting [8]), the “surfacepKa (Exp.)” value is on record as 6.75.

For the compound `CC(=O)CC(c1ccccc1)c1c(O)c2ccccc2oc1=O` (centres unmarked) [warfarin], the “bulkpKa (Exp.)” value in series [1] (setting [7]) was 5.43. For the same compound, the “surfacepKa (Exp.)” value in series [3] (setting [8]) worked out at 7.

Turning to `CCn1cc(C(=O)O)c(=O)c2ccc(C)nc21` [nalldixic acid], the “bulkpKa (Exp.)” value in series [1] (setting [7]) came to 6.03. Moreover, the “bulkpKa1 (Ref.)” value in series [2] (conditions not given) is listed as 6.02. For the same compound, the “surfacepKa (Exp.)” value in series [3] (setting [8]) stood at 7.54.

`Cc1cc(-c2ccccc2)nnc1NCCN1CCOCC1` [minaprine]: the “bulkpKa (Exp.)” value in series [1] is on record as 6.75. For the same compound, the “bulkpKa1 (Ref.)” value in series [2] (conditions not given) is recorded as 7.05. Further, the “bulkpka2 (Ref.)” value in series [2] is 4. For the same compound, in series [3], the “surfacepKa (Exp.)” value was 5.75.

In the case of `C=CCN1CC[C@]23c4c5ccc(O)c4O[C@H]2C(=O)CC[C@@]3(O)[C@H]1C5` [naloxone], the “bulkpKa (Exp.)” value in series [1] (setting [7]) turned out to be 7.84. In addition, the “surfacepKa (Exp.)” value in series [3] (setting [8]) is reported as 6.24.

Take `COc1cc2c(cc1OC)[C@@]13CCN4CC5=CCO[C@H]6CC(=O)N2[C@H]1[C@H]6[C@H]5C[C@H]43` [brucine]: the “bulkpKa (Exp.)” value in series [1] (setting [7]) worked out at 7.9. Moreover, in series [2] (conditions not given), the “bulkpKa1 (Ref.)” value was 6.04. Moreover, the “bulkpka2 (Ref.)” value in series [2] is reported as 11.70. Besides, the “surfacepKa (Exp.)” value in series [3] (setting [8]) was 6.55.

Take `C=CCN1CC[C@]23c4c5ccc(O)c4O[C@H]2[C@@H](O)C=C[C@H]3[C@H]1C5` [nalorphine]: the “bulkpKa (Exp.)” value in series [1] (setting [7]) was 7.63. Further, the “bulkpKa1 (Ref.)” value in series [2] (conditions not given) is on record as 7.8. The “surfacepKa (Exp.)” value in series [3] (setting [8]) worked out at 6.04.

For `CCCCCCCCCCCCC/C=C/[C@@H](O)[C@H](CO)N(C)C` [DMS, N,N-Dimethyl-D-sphingosine], the fraction protonated in series [4] (at physiological pH) was 90%. The “membrane bound pKa value” in series [4] is given as 8.8.

For `CCC[C@@H]1C[C@@H](C(=O)N[C@@H]([C@H]2O[C@H](SC)[C@H](O)[C@@H](O)[C@H]2O)[C@@H](C)O)N(C)C1` [lincomycin], the “bulkpKa (Exp.)” value in series [1] worked out at 7.54. The “bulkpKa1 (Ref.)” value in series [2] (conditions not given) was 7.5. Moreover, the “surfacepKa (Exp.)” value in series [3] was determined as 6.28.

In the case of `C=C1CC[C@@]2(O)[C@H]3Cc4ccc(O)c5c4[C@@]2(CCN3CC2CC2)[C@H]1O5` [nalmefene], the “bulkpKa (Exp.)” value in series [1] (setting [7]) was 7.81. The “bulkpKa1 (Ref.)” value in series [2] (conditions not given) was 7.63. In series [3] (setting [8]), the “surfacepKa (Exp.)” value worked out at 6.88.

As for `CC1COc2c(N3CCN(C)CC3)c(F)cc3c(=O)c(C(=O)O)cn1c23` (centres unmarked) [ofloxacin], the “bulkpKa (Exp.)” value in series [1] (setting [7]) is reported as 6.84. Also, the “bulkpKa1 (Ref.)” value in series [2] (conditions not given) is given as 5.74. In addition, the “bulkpka2 (Ref.)” value in series [2] was 7.9. The “surfacepKa (Exp.)” value in series [3] (setting [8]) is on record as 7.32.

As for `COc1ccc(OC)c(C(O)CNC(=O)CN)c1` (centres unmarked) [midodrine], in series [1], the “bulkpKa (Exp.)” value stood at 6.65. Further, in series [2] (0.3% aq. soln), the “bulkpKa1 (Ref.)” value is given as 7.80. Besides, in series [3], the “surfacepKa (Exp.)” value is reported as 6.18.

Regarding `COc1cc2nc(N3CCN(C(=O)C4CCCO4)CC3)nc(N)c2cc1OC` (centres unmarked) [terazosin], the “bulkpKa (Exp.)” value in series [1] is 6.65. Also, the “bulkpKa1 (Ref.)” value in series [2] (0.1 N NaOH) is recorded as 7.1. Further, the “surfacepKa (Exp.)” value in series [3] stood at 6.17.

As for `CCCCNc1ccc(C(=O)OCCN(C)C)cc1` [TTC, tetracaine hydrochloride], the “location in the membrane” value was “resides near the phospholipid head group region” in series [5] (pH 5.5, positively charged form) and “penetrates more deeply into the hydrocarbon region of the membrane” in series [5] (pH 9.0, uncharged form).

In the case of `COc1cc(NS(=O)(=O)c2ccc(N)cc2)nc(OC)n1` [sulfadimethoxine], the “bulkpKa (Exp.)” value in series [1] (setting [7]) is on record as 6.02. Besides, the “Capacity Factor (k′app) on IAM.PC Surface” value (“Capacity Factor (k′app)” below) came out at 152.07 in series [6] (mobile phase pH 4.05); 131.83 in series [6] (mobile phase pH 4.53 (not used for curve fit)); 131.23 in series [6] (mobile phase pH 5.01); 116.77 in series [6] (mobile phase pH 5.51); 67.79 in series [6] (mobile phase pH 6.10); 46.54 in series [6] (mobile phase pH 6.38). Moreover, the “Capacity Factor (k′app)” value in series [6] (mobile phase pH 6.71) is given as 28.10; in series [6] (mobile phase pH 7.00) it was 19.48; in series [6] (mobile phase pH 7.17), 13.49; in series [6] (mobile phase pH 7.45), 8.24; in series [6] (mobile phase pH 7.69) it was 6.40; in series [6] (mobile phase pH 7.91) it was 4.85. The “Capacity Factor (k′app)” value is 3.52 in series [6] (mobile phase pH 8.06); 2.84 in series [6] (mobile phase pH 8.81 (column degradation, not used for curve fit)); 0.71 in series [6] (mobile phase pH 10.42 (column degradation, not used for curve fit)). For the same compound, the “surfacepKa (Exp.)” value in series [3] (setting [8]) stood at 7.64.

As for `CN(C)CCOC(C)(c1ccccc1)c1ccccn1` (centres unmarked) [doxylamine], the “bulkpKa (Exp.)” value in series [1] (setting [7]) was 7.93. Also, in series [2] (conditions not given), the “bulkpKa1 (Ref.)” value is recorded as 7.64. The “bulkpka2 (Ref.)” value in series [2] is 9.20. For the same compound, in series [3] (setting [8]), the “surfacepKa (Exp.)” value came out at 6.72.
